In US6864056B1 (priority 2000, dated 2005):

Tested on: dAU6 NH3 oligonucleotide substrate
Assay type: biochemical

gelonin was tested, and the “level of activity (fluorescence normalized with negative control, FIG. 3)” value was “highest level of activity”.
